Test results as given in ChEMBL document CHEMBL4422621, “Novel chalcone and flavone derivatives as selective and dual inhibitors of the transport proteins ABCB1 and ABCG2” (Eur J Med Chem, 2019).

Experiments:
[1] = biological target: Multidrug resistance-associated protein 1 (Homo sapiens, UniProt P33527); assay: Inhibition of ABCC1 in human […] cells at 5 to 10 uM preincubated for 30 mins followed by calcein AM addition and measured every 60 secs for 1 hr by fluorescence assay; type: cell-based
ABCG2 (BCRP) [2] = biological target: T1, ABCG2 (BCRP) (Homo sapiens, UniProt Q9UNQ0); assay: (§1) Inhibition of ABCG2 (unknown origin) expressed in MDCK II BCRP cells assessed as effect on heophorbide A accumulation at 5 to 10 uM after 120 mins by flow cytometric analysis relative to control; type: cell-based; conditions: MDCK II BCRP cells expressing ABCG2, probe pheophorbide A
T1 sequence (Q9UNQ0 whole entry): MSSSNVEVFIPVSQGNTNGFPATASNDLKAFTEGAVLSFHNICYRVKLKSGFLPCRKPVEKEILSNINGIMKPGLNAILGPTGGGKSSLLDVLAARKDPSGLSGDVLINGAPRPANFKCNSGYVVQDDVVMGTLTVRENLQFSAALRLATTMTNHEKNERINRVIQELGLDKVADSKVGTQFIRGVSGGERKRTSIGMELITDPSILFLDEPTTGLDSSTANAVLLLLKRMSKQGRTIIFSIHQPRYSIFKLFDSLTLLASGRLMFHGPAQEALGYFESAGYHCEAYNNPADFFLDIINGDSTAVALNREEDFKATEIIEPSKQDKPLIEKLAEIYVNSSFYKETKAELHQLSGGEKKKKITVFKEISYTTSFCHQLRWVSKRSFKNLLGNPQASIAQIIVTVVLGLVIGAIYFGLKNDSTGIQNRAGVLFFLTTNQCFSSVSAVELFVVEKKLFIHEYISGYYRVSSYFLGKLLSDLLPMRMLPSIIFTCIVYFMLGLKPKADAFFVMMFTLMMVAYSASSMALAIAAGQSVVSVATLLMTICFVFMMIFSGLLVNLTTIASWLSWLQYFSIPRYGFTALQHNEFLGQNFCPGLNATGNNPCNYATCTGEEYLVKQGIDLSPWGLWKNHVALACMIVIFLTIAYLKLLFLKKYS

[3] = biological target: T2, Broad substrate specificity ATP-binding cassette transporter ABCG2 (Homo sapiens, UniProt Q9UNQ0); assay: Inhibition of ABCG2 (unknown origin) expressed in MDCK II BCRP cells assessed as effect on pheophorbide A accumulation after 120 mins by flow cytometric analysis; type: cell-based
T2 sequence (Q9UNQ0 whole entry): T1 sequence (Q9UNQ0 whole entry)

[4] = biological target: ATP-dependent translocase ABCB1 (Homo sapiens, UniProt P08183); assay: Inhibition of ABCB1 in human A2780/ADR cells at 5 to 10 uM preincubated for 30 mins followed by calcein AM addition and measured every 60 secs for 1 hr by fluorescence assay; type: cell-based
[5] = biological target: T2, Broad substrate specificity ATP-binding cassette transporter ABCG2; assay: as §1; type: cell-based; conditions: 2 h
ABCG2 (BCRP) [6] = assay: Therapeutic index, ratio of GI50 for MDCK2 cells expressing BCRP (unknown origin) to EC50 for ABCG2 (unknown origin) co-expressed in MDCK2 cells expressing BCRP (unknown origin); type: toxicity, cell-based; conditions: dog
[7] = Growth inhibition of MDCK2 cells after 72 hrs by MTT assay; type: cell-based, Canis lupus familiaris, MDCK-II; conditions: dog
[8] = Growth inhibition of MDCK2 cells expressing BCRP (unknown origin) after 72 hrs by MTT assay; type: ADME, cell-based, Canis lupus familiaris, MDCK-II; conditions: dog

Multidrug resistance-associated protein 1, sequence (P33527 whole entry): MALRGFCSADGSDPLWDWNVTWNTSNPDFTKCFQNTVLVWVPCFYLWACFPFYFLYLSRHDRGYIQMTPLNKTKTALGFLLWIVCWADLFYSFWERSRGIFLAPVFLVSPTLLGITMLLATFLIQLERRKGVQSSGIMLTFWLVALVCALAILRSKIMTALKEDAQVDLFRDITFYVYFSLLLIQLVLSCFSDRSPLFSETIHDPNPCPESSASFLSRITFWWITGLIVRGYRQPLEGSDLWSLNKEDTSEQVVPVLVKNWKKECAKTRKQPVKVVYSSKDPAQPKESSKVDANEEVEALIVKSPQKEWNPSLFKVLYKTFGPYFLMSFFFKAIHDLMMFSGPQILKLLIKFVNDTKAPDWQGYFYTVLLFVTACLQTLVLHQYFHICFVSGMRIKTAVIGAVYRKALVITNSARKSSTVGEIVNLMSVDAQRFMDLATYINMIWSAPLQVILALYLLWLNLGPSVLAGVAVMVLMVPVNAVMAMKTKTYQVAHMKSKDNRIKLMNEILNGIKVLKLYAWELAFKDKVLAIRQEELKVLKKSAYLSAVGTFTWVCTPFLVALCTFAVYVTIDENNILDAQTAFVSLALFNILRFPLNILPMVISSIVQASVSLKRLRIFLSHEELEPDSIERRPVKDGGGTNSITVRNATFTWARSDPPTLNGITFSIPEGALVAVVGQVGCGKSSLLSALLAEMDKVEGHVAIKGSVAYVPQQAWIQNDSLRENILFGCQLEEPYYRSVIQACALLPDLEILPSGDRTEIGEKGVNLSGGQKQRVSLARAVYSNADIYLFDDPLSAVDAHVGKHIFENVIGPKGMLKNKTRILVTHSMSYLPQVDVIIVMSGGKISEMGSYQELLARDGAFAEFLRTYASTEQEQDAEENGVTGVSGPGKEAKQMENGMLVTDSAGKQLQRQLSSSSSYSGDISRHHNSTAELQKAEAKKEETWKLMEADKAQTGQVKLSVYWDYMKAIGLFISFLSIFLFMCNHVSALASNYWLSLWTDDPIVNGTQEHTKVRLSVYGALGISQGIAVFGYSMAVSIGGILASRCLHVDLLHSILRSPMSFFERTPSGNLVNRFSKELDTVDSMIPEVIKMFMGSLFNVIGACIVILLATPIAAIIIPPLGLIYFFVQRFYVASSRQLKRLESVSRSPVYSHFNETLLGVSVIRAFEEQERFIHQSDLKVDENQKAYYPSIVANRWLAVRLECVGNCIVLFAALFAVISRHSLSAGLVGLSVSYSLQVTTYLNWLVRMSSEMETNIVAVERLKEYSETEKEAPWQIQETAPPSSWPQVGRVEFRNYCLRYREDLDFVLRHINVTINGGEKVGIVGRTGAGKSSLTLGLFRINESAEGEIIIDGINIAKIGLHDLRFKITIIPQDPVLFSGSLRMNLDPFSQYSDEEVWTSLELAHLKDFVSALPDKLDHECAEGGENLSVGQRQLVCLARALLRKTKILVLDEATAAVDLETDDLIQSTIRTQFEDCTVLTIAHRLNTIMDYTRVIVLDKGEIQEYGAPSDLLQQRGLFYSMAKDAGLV
ATP-dependent translocase ABCB1, sequence (P08183 whole entry): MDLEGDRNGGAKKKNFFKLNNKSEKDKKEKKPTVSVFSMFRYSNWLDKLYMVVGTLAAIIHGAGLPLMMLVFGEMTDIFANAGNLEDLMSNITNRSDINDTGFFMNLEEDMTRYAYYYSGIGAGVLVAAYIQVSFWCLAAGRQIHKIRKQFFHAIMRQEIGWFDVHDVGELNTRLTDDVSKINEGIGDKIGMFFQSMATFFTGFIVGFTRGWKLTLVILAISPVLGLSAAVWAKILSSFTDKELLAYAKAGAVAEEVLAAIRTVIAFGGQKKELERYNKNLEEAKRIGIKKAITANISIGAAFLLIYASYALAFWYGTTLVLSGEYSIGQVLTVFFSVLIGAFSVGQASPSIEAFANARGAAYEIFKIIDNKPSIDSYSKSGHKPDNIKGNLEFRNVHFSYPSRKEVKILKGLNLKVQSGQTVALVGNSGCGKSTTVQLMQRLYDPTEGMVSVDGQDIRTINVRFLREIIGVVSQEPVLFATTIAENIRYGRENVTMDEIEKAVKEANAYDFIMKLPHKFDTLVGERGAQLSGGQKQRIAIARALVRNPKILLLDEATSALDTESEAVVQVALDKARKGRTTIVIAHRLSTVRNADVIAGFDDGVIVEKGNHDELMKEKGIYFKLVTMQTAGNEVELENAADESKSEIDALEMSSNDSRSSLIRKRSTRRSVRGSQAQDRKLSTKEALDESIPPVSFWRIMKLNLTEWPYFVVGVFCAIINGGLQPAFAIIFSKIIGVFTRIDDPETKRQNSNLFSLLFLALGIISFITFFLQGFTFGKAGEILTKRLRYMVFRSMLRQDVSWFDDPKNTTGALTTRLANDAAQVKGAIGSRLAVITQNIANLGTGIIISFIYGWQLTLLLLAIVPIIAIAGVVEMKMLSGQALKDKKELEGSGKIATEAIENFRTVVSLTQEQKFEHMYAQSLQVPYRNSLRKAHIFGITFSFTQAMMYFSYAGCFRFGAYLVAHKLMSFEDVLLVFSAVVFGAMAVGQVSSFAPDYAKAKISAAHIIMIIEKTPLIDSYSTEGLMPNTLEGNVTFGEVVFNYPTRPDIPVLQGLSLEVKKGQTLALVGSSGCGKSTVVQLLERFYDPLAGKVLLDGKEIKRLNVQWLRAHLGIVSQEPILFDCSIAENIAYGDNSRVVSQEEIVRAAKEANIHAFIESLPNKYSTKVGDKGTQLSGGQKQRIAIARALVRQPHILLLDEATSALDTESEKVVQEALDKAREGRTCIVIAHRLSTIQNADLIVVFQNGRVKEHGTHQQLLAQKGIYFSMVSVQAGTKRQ

Row | SMILES | inhibition at 2 h (ABCG2 (BCRP) [2]) [%] | IC50 [3] [µM] | inhibition (INH) [5] | other results
1 | COc1ccc(/C=C/C(=O)c2cccc(OCC(=O)Nc3ccc4c(c3)COC4=O)c2)cc1OC | ≥ 25 | 12 |  | 
2 | COc1cc(-c2oc3ccccc3c(=O)c2OCC(=O)Nc2ccc3c(c2)COC3=O)cc(OC)c1OC | ≥ 25 | 9 |  | 
3 | COc1cccc(/C=C/C(=O)c2ccc(OCC(=O)Nc3ccc4c(c3)COC4=O)cc2)c1 |  |  | Not Active | 
4 | CCOc1ccc(/C=C/C(=O)c2ccc(OCC(=O)Nc3ccc4c(c3)COC4=O)cc2)cc1 | ≥ 25 | 20.1 |  | 
5 | COc1cc(/C=C/C(=O)c2ccc(OCC(=O)Nc3ccc4c(c3)COC4=O)cc2)cc(OC)c1OC | ≥ 25 | 8.44 |  | 
6 | CCOc1ccc(/C=C/C(=O)c2ccc(OCC(=O)NCc3ccc4c(c3)OCO4)cc2)cc1 |  |  | Not Active | 
7 | COc1ccc(/C=C/C(=O)c2cccc(OCC(=O)Nc3ccc(OC)c(OC)c3)c2)cc1OC | ≥ 25 | 6.33 |  | 
8 | O=C(COc1c(-c2cccs2)oc2ccccc2c1=O)Nc1ccc2c(c1)COC2=O |  |  | Not Active | 
9 | COc1ccc(/C=C/C(=O)c2ccc(OCC(=O)Nc3ccc4c(c3)COC4=O)cc2)cc1OC | ≥ 25 | 6.63 |  | 
10 | COc1ccc(NC(=O)COc2ccc(C(=O)/C=C/c3c(F)cccc3F)cc2)cc1OC | ≥ 25 | 6.11 |  | selectivity ratio (ABCG2 (BCRP) [6]): 6; GI50 at 72 h [7]: 36.2 µM; GI50 at 72 h [8]: 36.6 µM
11 | COc1ccc(NC(=O)COc2ccc(C(=O)/C=C/c3ccc(Cl)cc3)cc2)cc1OC | ≥ 25 | 6.95 |  | 
12 | O=C(COc1ccc(C(=O)/C=C/c2ccc([N+](=O)[O-])cc2)cc1)Nc1ccc2c(c1)COC2=O |  |  | Not Active | 
13 | O=C(COc1ccc(/C=C/C(=O)c2ccc(F)cc2)cc1)Nc1ccc2c(c1)COC2=O |  |  | Not Active | 
14 | COc1ccc(-c2c(OCC(=O)Nc3ccc(Br)cc3)oc3ccccc3c2=O)cc1 |  |  | Not Active | 
15 | Cc1ccc(-c2oc3ccccc3c(=O)c2OCC(=O)Nc2ccc3c(c2)COC3=O)cc1 |  |  | Not Active | 
16 | COc1ccc(/C=C/C(=O)c2ccc(OCC(=O)Nc3ccc4c(c3)COC4=O)cc2)cc1 |  |  | Not Active | 
17 | COc1cc(C(=O)/C=C/c2cc(OC)c(OC)c(OC)c2)ccc1OCC(=O)Nc1ccc2c(c1)COC2=O | ≥ 25 | 11.4 |  | 
18 | COc1ccc(/C=C/C(=O)c2ccc(OCC(=O)NCc3ccc4c(c3)OCO4)cc2)cc1 | ≥ 25 | 10 |  | 
19 | O=C(COc1ccc(C(=O)/C=C/c2c(F)cccc2F)cc1)NCc1ccc2c(c1)OCO2 |  |  | Not Active | 
20 | COc1cc(/C=C/C(=O)c2ccc(OCC(=O)NCc3ccc4c(c3)OCO4)cc2)cc(OC)c1OC | ≥ 25 | 6.89 |  | selectivity ratio (ABCG2 (BCRP) [6]): 9.2; GI50 at 72 h [7]: 61.5 µM; GI50 at 72 h [8]: 63.5 µM
21 | COc1ccc(-c2oc3ccccc3c(=O)c2OCC(=O)Nc2ccc3c(c2)COC3=O)cc1 |  |  | Not Active | 
22 | COc1ccc(-c2oc3ccccc3c(=O)c2OCC(=O)Nc2ccc3c(c2)COC3=O)cc1OC |  |  | Not Active | 
23 | O=C(COc1ccc(C(=O)/C=C/c2ccc(OCc3ccccc3)cc2)cc1)Nc1ccc2c(c1)COC2=O |  |  | Not Active | 
24 | COc1cc(-c2c(OCC(=O)Nc3cccc4ccccc34)oc3ccccc3c2=O)cc(OC)c1OC | ≥ 25 | 10.5 |  | 
25 | Cc1ccc(-c2c(OCC(=O)Nc3ccc(Br)cc3)oc3ccccc3c2=O)cc1 |  |  | Not Active | 
26 | O=C(COc1ccc(C(=O)/C=C/c2ccc(OCc3ccc(Cl)cc3)cc2)cc1)Nc1ccc2c(c1)COC2=O |  |  | Not Active | 
27 | O=C(COc1c(-c2ccccc2)oc2ccccc2c1=O)Nc1ccc2c(c1)COC2=O | ≥ 25 | 13.1 |  | 
28 | O=C(COc1ccc(C(=O)/C=C/c2ccc(OCc3ccc(Cl)cc3Cl)cc2)cc1)Nc1ccc2c(c1)COC2=O |  |  | Not Active | 
29 | CCCOc1ccc(/C=C/C(=O)c2ccc(OCC(=O)Nc3ccc4c(c3)COC4=O)cc2)cc1 |  |  | Not Active | 
30 | CCCCOc1ccc(/C=C/C(=O)c2ccc(OCC(=O)Nc3ccc4c(c3)COC4=O)cc2)cc1 |  |  | Not Active | 

The next lines start with results.

Row | inhibition at 2 h (ABCG2 (BCRP) [2]) [%] | IC50 [3] [µM] | inhibition (INH) [5] | SMILES | other results
31 | ≥ 25 | 20 |  | O=C(/C=C/c1ccc(OCc2ccc(Cl)cc2)cc1)c1ccc(O)cc1 | inhibition (INH) [1]: Not Active; inhibition (INH) [4]: Not Active
32 | ≥ 25 | 9.21 |  | O=C(/C=C/c1ccc(OCc2ccccc2)cc1)c1ccc(O)cc1 | inhibition (INH) [1]: Not Active; inhibition (INH) [4]: Not Active
33 |  |  | Not Active | O=C(/C=C/c1ccc(OCc2ccc(Cl)cc2Cl)cc1)c1ccc(O)cc1 | inhibition (INH) [1]: Not Active; inhibition (INH) [4]: Not Active
34 |  |  | Not Active | O=C(COc1ccc(C(=O)/C=C/c2cccs2)cc1)Nc1ccc2c(c1)COC2=O | 
35 | ≥ 25 | 4.91 |  | O=C(/C=C/c1ccccc1C(F)(F)F)c1ccc(O)cc1 | inhibition (INH) [1]: Not Active; inhibition (INH) [4]: Not Active
36 | ≥ 25 | 7.29 |  | CCCCOc1ccc(/C=C/C(=O)c2ccc(O)cc2)cc1 | inhibition (INH) [1]: Not Active; inhibition (INH) [4]: Not Active
37 |  |  | Not Active | O=C(COc1ccc(C(=O)/C=C/c2ccccc2Cl)cc1)Nc1ccc2c(c1)COC2=O | 
38 | ≥ 25 | 10.5 |  | O=C(/C=C/c1cccs1)c1ccccc1O | inhibition (INH) [1]: Not Active; inhibition (INH) [4]: Not Active
39 | ≥ 25 | 6.44 |  | CCOc1ccc(/C=C/C(=O)c2ccc(O)cc2)cc1 | inhibition (INH) [1]: Not Active; inhibition (INH) [4]: Not Active
40 | ≥ 25 | 5.4 |  | COc1ccc(NC(=O)COc2ccc(C(=O)/C=C/c3ccco3)cc2)cc1OC | 
41 |  |  | Not Active | O=C(/C=C/c1ccco1)c1ccc(O)cc1 | inhibition (INH) [1]: Not Active; inhibition (INH) [4]: Not Active
42 |  |  | Not Active | O=C(COc1ccc(C(=O)/C=C/c2ccco2)cc1)Nc1ccc2c(c1)COC2=O | 
43 | ≥ 25 | 18.2 |  | O=C(/C=C/c1cccs1)c1ccc(O)cc1 | inhibition (INH) [1]: Not Active; inhibition (INH) [4]: Not Active
44 |  |  | Not Active | O=C(COc1c(-c2ccco2)oc2ccccc2c1=O)Nc1ccc2c(c1)COC2=O | 
45 | ≥ 25 | 4.28 |  | COc1cc(/C=C/C(=O)c2cccc(O)c2)cc(OC)c1OC | inhibition (INH) [1]: Not Active; inhibition (INH) [4]: Not Active
46 | ≥ 25 | 6.08 |  | O=C(COc1cccc(C(=O)/C=C/c2ccccc2)c1)Nc1ccc2c(c1)COC2=O | selectivity ratio (ABCG2 (BCRP) [6]): 2.7; GI50 at 72 h [7]: 11.5 µM; GI50 at 72 h [8]: 16.6 µM
47 | ≥ 25 | 7.22 |  | O=C(/C=C/c1c(F)cccc1F)c1ccc(O)cc1 | inhibition (INH) [1]: Not Active; inhibition (INH) [4]: Not Active
48 | ≥ 25 | 10.9 |  | O=C(COc1ccc(C(=O)/C=C/c2c(F)cccc2F)cc1)Nc1ccc2c(c1)COC2=O | 
49 |  |  | Not Active | O=C(COc1ccc(C(=O)/C=C/c2ccccc2)cc1)Nc1ccc2c(c1)COC2=O | 
50 | ≥ 25 | 16.2 |  | O=C(/C=C/c1ccco1)c1ccccc1O | inhibition (INH) [1]: Not Active; inhibition (INH) [4]: Not Active
